Results reported in PubChem BioAssay (NCI).
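Exposure lasted 48 hours, with cells grown in 96-well plates and compounds tested at five concentrations. The concentration for full growth arrest is given as TGI.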

Columns and labels:
Assay in all cases: DTP human tumour cell line panel, 48 h
786-0 renal = system: 786-0 renal
A498 renal = system: A498 renal
A549 NSCLC = system: A549 NSCLC
ACHN renal = system: ACHN renal
BT-549 breast = system: BT-549 breast
CAKI-1 renal = system: CAKI-1 renal
CCRF-CEM leukemia = system: CCRF-CEM leukemia
COLO 205 colon = system: COLO 205 colon
DU-145 prostate = system: DU-145 prostate
EKVX NSCLC = system: EKVX NSCLC
HCC-2998 colon = system: HCC-2998 colon
HCT-116 colon = system: HCT-116 colon
HCT-15 colon = system: HCT-15 colon
HL-60(TB) leukemia = system: HL-60(TB) leukemia
HOP-62 NSCLC = system: HOP-62 NSCLC
HOP-92 NSCLC = system: HOP-92 NSCLC
HS 578T breast = system: HS 578T breast
HT29 colon = system: HT29 colon
IGROV1 ovarian = system: IGROV1 ovarian
K-562 leukemia = system: K-562 leukemia
KM12 colon = system: KM12 colon
LOX IMVI melanoma = system: LOX IMVI melanoma
M14 melanoma = system: M14 melanoma
MALME-3M melanoma = system: MALME-3M melanoma
MCF7 breast = system: MCF7 breast
MDA-MB-231 breast = system: MDA-MB-231 breast
MDA-MB-435 = system: MDA-MB-435
MDA-N = system: MDA-N
MOLT-4 leukemia = system: MOLT-4 leukemia
NCI-H226 lung = system: NCI-H226 lung
NCI-H23 lung = system: NCI-H23 lung
NCI-H460 lung = system: NCI-H460 lung
NCI-H522 lung = system: NCI-H522 lung
NCI/ADR-RES ovarian = system: NCI/ADR-RES ovarian
OVCAR-3 ovarian = system: OVCAR-3 ovarian
OVCAR-4 ovarian = system: OVCAR-4 ovarian
OVCAR-5 ovarian = system: OVCAR-5 ovarian
OVCAR-8 ovarian = system: OVCAR-8 ovarian
PC-3 prostate = system: PC-3 prostate
RPMI-8226 leukemia = system: RPMI-8226 leukemia
RXF 393 renal = system: RXF 393 renal
SF-268 CNS = system: SF-268 CNS
SF-295 CNS = system: SF-295 CNS
SF-539 CNS = system: SF-539 CNS
SK-MEL-2 melanoma = system: SK-MEL-2 melanoma
SK-MEL-28 melanoma = system: SK-MEL-28 melanoma
SK-MEL-5 melanoma = system: SK-MEL-5 melanoma
SK-OV-3 ovarian = system: SK-OV-3 ovarian
SN12C renal = system: SN12C renal
SNB-19 CNS = system: SNB-19 CNS
SNB-75 CNS = system: SNB-75 CNS
SW-620 colon = system: SW-620 colon
T-47D breast = system: T-47D breast
TK-10 renal = system: TK-10 renal
U251 CNS = system: U251 CNS
UACC-257 melanoma = system: UACC-257 melanoma
UACC-62 melanoma = system: UACC-62 melanoma
UO-31 renal = system: UO-31 renal
SR leukemia = system: SR leukemia

In the case of `O=C1Nc2ccc(Br)cc2C1=Nc1cccnc1`, the TGI (786-0 renal) was 44.7 µM, the TGI (A498 renal) was > 100 µM and the TGI (A549 NSCLC) was > 100 µM. The TGI (ACHN renal) was 39.3 µM, the TGI (BT-549 breast) was 33.2 µM and the TGI (CAKI-1 renal) was > 100 µM. The TGI (CCRF-CEM leukemia) was 57.4 µM, the TGI (COLO 205 colon) was > 100 µM and the TGI (DU-145 prostate) was > 100 µM. It also gave a TGI (EKVX NSCLC) of 65.1 µM, a TGI (HCC-2998 colon) of 40 µM and a TGI (HCT-116 colon) of 44.5 µM. The TGI (HCT-15 colon) was 59.6 µM, the TGI (HL-60(TB) leukemia) was 48.8 µM and the TGI (HOP-62 NSCLC) was 74.2 µM. For the same molecule, the TGI (HOP-92 NSCLC) was > 100 µM, the TGI (HS 578T breast) was 60.5 µM and the TGI (HT29 colon) was 51.3 µM. The TGI (IGROV1 ovarian) was 60.7 µM, the TGI (K-562 leukemia) was 52.7 µM and the TGI (KM12 colon) was 99.3 µM. For the same molecule, the TGI (LOX IMVI melanoma) was 34.8 µM, the TGI (M14 melanoma) was 31.5 µM and the TGI (MALME-3M melanoma) was 46.8 µM. It also gave a TGI (MCF7 breast) of 59.3 µM, a TGI (MDA-MB-231 breast) of 37.6 µM and a TGI (MDA-MB-435) of 28.9 µM. The TGI (MDA-N) was 34.7 µM, the TGI (MOLT-4 leukemia) was 64.5 µM and the TGI (NCI-H226 lung) was > 100 µM. For the same molecule, the TGI (NCI-H23 lung) was 45.4 µM, the TGI (NCI-H460 lung) was > 100 µM and the TGI (NCI-H522 lung) was 29.5 µM. It also gave a TGI (NCI/ADR-RES ovarian) of 87.1 µM, a TGI (OVCAR-3 ovarian) of 44.3 µM and a TGI (OVCAR-4 ovarian) of 25.1 µM. The TGI (OVCAR-5 ovarian) was > 100 µM, the TGI (OVCAR-8 ovarian) was 51.7 µM and the TGI (PC-3 prostate) was 41.2 µM. It also gave a TGI (RPMI-8226 leukemia) of 60.9 µM, a TGI (RXF 393 renal) of 29.1 µM and a TGI (SF-268 CNS) of 71.8 µM. The TGI (SF-295 CNS) was > 100 µM, the TGI (SF-539 CNS) was 30 µM and the TGI (SK-MEL-2 melanoma) was 57.2 µM. For the same molecule, the TGI (SK-MEL-28 melanoma) was 42 µM, the TGI (SK-MEL-5 melanoma) was 31.8 µM and the TGI (SK-OV-3 ovarian) was > 100 µM. The TGI (SN12C renal) was 37.9 µM, the TGI (SNB-19 CNS) was > 100 µM and the TGI (SNB-75 CNS) was > 100 µM. For the same molecule, the TGI (SW-620 colon) was 46.4 µM, the TGI (T-47D breast) was 52.7 µM and the TGI (TK-10 renal) was > 100 µM. It also gave a TGI (U251 CNS) of 24.8 µM, a TGI (UACC-257 melanoma) of 55.9 µM and a TGI (UACC-62 melanoma) of 35 µM. For the same molecule, the TGI (UO-31 renal) was 29.7 µM.

For `OCCO/N=C1\C(c2c(O)[nH]c3ccccc23)=Nc2ccccc21`, the TGI (786-0 renal) was > 100 µM, the TGI (A498 renal) was 0.875 µM and the TGI (A549 NSCLC) was > 100 µM. For the same molecule, the TGI (ACHN renal) was > 100 µM, the TGI (BT-549 breast) was > 100 µM and the TGI (CAKI-1 renal) was > 100 µM. The TGI (CCRF-CEM leukemia) was > 100 µM, the TGI (COLO 205 colon) was > 100 µM and the TGI (DU-145 prostate) was > 100 µM. For the same molecule, the TGI (EKVX NSCLC) was > 100 µM, the TGI (HCC-2998 colon) was > 100 µM and the TGI (HCT-116 colon) was > 100 µM. The TGI (HCT-15 colon) was > 100 µM, the TGI (HL-60(TB) leukemia) was > 100 µM and the TGI (HOP-62 NSCLC) was > 100 µM. The TGI (HOP-92 NSCLC) was > 100 µM, the TGI (HS 578T breast) was > 100 µM and the TGI (HT29 colon) was > 100 µM. The TGI (IGROV1 ovarian) was > 100 µM, the TGI (K-562 leukemia) was > 100 µM and the TGI (KM12 colon) was > 100 µM. The TGI (LOX IMVI melanoma) was > 100 µM, the TGI (M14 melanoma) was > 100 µM and the TGI (MALME-3M melanoma) was > 100 µM. The TGI (MCF7 breast) was > 100 µM, the TGI (MDA-MB-435) was > 100 µM and the TGI (MDA-N) was > 100 µM. The TGI (MOLT-4 leukemia) was > 100 µM, the TGI (NCI-H226 lung) was > 100 µM and the TGI (NCI-H23 lung) was > 100 µM. For the same molecule, the TGI (NCI-H460 lung) was > 100 µM, the TGI (NCI-H522 lung) was > 100 µM and the TGI (NCI/ADR-RES ovarian) was > 100 µM. For the same molecule, the TGI (OVCAR-3 ovarian) was > 100 µM, the TGI (OVCAR-4 ovarian) was > 100 µM and the TGI (OVCAR-5 ovarian) was > 100 µM. The TGI (OVCAR-8 ovarian) was > 100 µM, the TGI (PC-3 prostate) was > 100 µM and the TGI (RPMI-8226 leukemia) was > 100 µM. The TGI (RXF 393 renal) was > 100 µM, the TGI (SF-268 CNS) was > 100 µM and the TGI (SF-295 CNS) was > 100 µM. For the same molecule, the TGI (SF-539 CNS) was > 100 µM, the TGI (SK-MEL-2 melanoma) was > 100 µM and the TGI (SK-MEL-28 melanoma) was > 100 µM. For the same molecule, the TGI (SK-MEL-5 melanoma) was > 100 µM, the TGI (SK-OV-3 ovarian) was > 100 µM and the TGI (SN12C renal) was > 100 µM. The TGI (SNB-19 CNS) was > 100 µM, the TGI (SNB-75 CNS) was > 100 µM and the TGI (SR leukemia) was > 100 µM. For the same molecule, the TGI (SW-620 colon) was > 100 µM, the TGI (T-47D breast) was > 100 µM and the TGI (TK-10 renal) was > 100 µM. The TGI (U251 CNS) was > 100 µM, the TGI (UACC-257 melanoma) was > 100 µM and the TGI (UACC-62 melanoma) was > 100 µM. For the same molecule, the TGI (UO-31 renal) was > 100 µM.
